Test system: CD4 and CD8 T lymphocytes
Assay: Suppression of stimulated T cell proliferation (CFSE) by drug pre-incubated MSC
Type: cell-based, human
Details: MSC pre-incubated with 50 ng/ml; FIG. 6
Method: MSC derived from (FIG. 1A,E) bone marrow (BM) or (FIG. 1B-D) two independent umbilical cord (UC) preparations (WJ6060:FIG. 1B-C; WJ24-0: FIG. 1D) were incubated with Rapamycin overnight at concentrations from 0.4 to 50 ng/ml, or without drug (control (Ctl)). The MSC were washed, trypsinised, and plated in fresh medium without Rapamycin at 1, 5, and 25 k per well in 96 well plates. After 2-4 hours, human adult peripheral blood mononuclear cells (MNC) labelled with carboxyfluorescein succinimidyl ester (CFSE) were added, and the T lymphocytes therein were stimulated to proliferate with Phytohemagglutinin (PHA) (FIG. 1A-D) or anti-CD3, CD28 activation beads (FIG. 1E). Proliferation levels were determined after 3 days as described in the Methods section. […]
After 3-4 (PHA or bead stimulation) or 5-6 days (allostimulation) the cultures were analysed by flow cytofluorometry after staining for CD3 and CD4, and the CFSE dye-dilution profiles of CD3+CD4+ (CD4) and CD3+CD4- (CD8) lymphocytes were used to calculate proliferation indices (Lyons (2000)). To normalise the level of proliferation between experiments, the proliferation indices were calculated as: (proliferation index for condition X−proliferation index for unstimulated cells)/(proliferation index for PHA or bead stimulated control cells−proliferation index for unstimulated cells). […]

With `CCC(=O)N1CCN(c2ccc(-n3c(=O)ccc4cnc5ccc(-c6cnc7ccccc7c6)cc5c43)cc2C(F)(F)F)CC1` [Torin 1] the “super-suppression by pre-incubated MSC” value was “no significant super-suppression”.
